Measurements: the supplement of paper PMC10307832

Experiments:
Assay in all cases: relative viability (nuclei count vs DMSO), 5 days (fraction); higher = more cells survive
A549 = system: A549
Outline: (§1)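 Each reported value is a median over duplicate plates. It expresses relative viability: treated-well nuclei count divided by vehicle-well nuclei count. Lung cancer cell lines in 1536-well plates were dosed by pin tool a day after seeding, alone with one drug or with a fixed anchor-drug dose plus five library-drug doses (not always all listed) in √10 steps, and nuclei were counted after 5 days.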

CAL-12T = system: CAL-12T
Outline: as §1

Calu-6 = system: Calu-6
Outline: as §1

EBC-1 = system: EBC-1
Outline: as §1

IA-LM = system: IA-LM
Outline: as §1

NCI-H1299 = system: NCI-H1299
Outline: as §1

NCI-H1703 = system: NCI-H1703
Outline: as §1

Structure (SMILES)	relative viability (A549; first compound 0.04 µM)	relative viability (A549; first compound 0.1265 µM)	relative viability (A549; first compound 0.4 µM)	relative viability (A549; first compound 1.265 µM)	relative viability (A549; first compound 4 µM)	relative viability (CAL-12T; first compound 0.04 µM)	relative viability (CAL-12T; first compound 0.1265 µM)	relative viability (CAL-12T; first compound 0.4 µM)	relative viability (CAL-12T; first compound 1.265 µM)	relative viability (CAL-12T; first compound 4 µM)	relative viability (Calu-6; first compound 0.04 µM)	relative viability (Calu-6; first compound 0.1265 µM)	relative viability (Calu-6; first compound 0.4 µM)	relative viability (Calu-6; first compound 1.265 µM)	relative viability (Calu-6; first compound 4 µM)	relative viability (EBC-1; first compound 0.04 µM)	relative viability (EBC-1; first compound 0.1265 µM)	relative viability (EBC-1; first compound 0.4 µM)	relative viability (EBC-1; first compound 1.265 µM)	relative viability (EBC-1; first compound 4 µM)	relative viability (IA-LM; first compound 0.04 µM)	relative viability (IA-LM; first compound 0.1265 µM)	relative viability (IA-LM; first compound 0.4 µM)	relative viability (IA-LM; first compound 1.265 µM)	relative viability (IA-LM; first compound 4 µM)	relative viability (NCI-H1299; first compound 0.04 µM)	relative viability (NCI-H1299; first compound 0.1265 µM)	relative viability (NCI-H1299; first compound 0.4 µM)	relative viability (NCI-H1299; first compound 1.265 µM)	relative viability (NCI-H1299; first compound 4 µM)	relative viability (NCI-H1703; first compound 0.04 µM)	relative viability (NCI-H1703; first compound 0.1265 µM)	relative viability (NCI-H1703; first compound 1.265 µM)	relative viability (NCI-H1703; first compound 4 µM)	relative viability (NCI-H1703; first compound 0.4 µM)
COc1cc(N2CCC(C(N)=O)CC2)ccc1Nc1nc(N)c(Cl)c(Nc2ccccc2S(=O)(=O)C(C)C)n1 [HG-5-88-01] + C[C@]1(O)C[C@@H](c2nc(-c3ccc4ccc(-c5ccccc5)nc4c3)c3c(N)nccn32)C1 [Linsitinib] (partner 1 µM)	0.59	0.771	0.634	0.432	0.796	0.773	0.592	0.78	0.561	0.726	0.938	0.837	0.95	0.929	1.02	0.892	0.373	0.924	0.847	0.927	0.602	0.383	0.488	0.314	0.542	0.999	0.97	0.945	0.97	1.1	0.689	0.648	0.486	1.62	
COc1cc(N2CCC(C(N)=O)CC2)ccc1Nc1nc(N)c(Cl)c(Nc2ccccc2S(=O)(=O)C(C)C)n1 [HG-5-88-01] + C[C@@H](Oc1cc(-c2cnn(C3CCNCC3)c2)cnc1N)c1c(Cl)ccc(F)c1Cl [Crizotinib] (partner 1 µM)	0.735	0.763	0.699	0.387	0.0941	0.589	0.671	0.421	0.432	0.183	0.767	0.81	0.833	0.616	0.304	0.183	0.187	0.207	0.171	0.142	0.907	0.953	0.773	0.632	0.758	0.992	0.981	0.982	0.976	0.881	0.581	0.523	0.327	0.175	0.54
Clc1ccc(Nc2nnc(Cc3ccncc3)c3ccccc23)cc1 [Vatalanib] + CS(=O)(=O)CCNCc1ccc(-c2ccc3ncnc(Nc4ccc(OCc5cccc(F)c5)c(Cl)c4)c3c2)o1 [Lapatinib] (partner 2 µM)	0.991	0.918	1.05	1	1.01	0.63	0.668		0.678	0.633	1.14	1.02	1.09	1.05	1.07	0.165	0.204	0.22	0.232	0.202	0.869	0.816	0.885	0.674	0.674	0.96	0.961	0.931	0.939	0.969	1.28	1.05	0.611	0.435	1.4
